In brackets after ≈: the same amount, converted by molar mass. Activity calls are given as the source filed them. No cut-off for these calls is given here.
What was measured:
L5178Y = assay: Cytotoxicity against mouse L5178Y cells by trypan blue exclusion method; assay type: functional; conditions: read-out: LD50 (the source's name)
Perknaster fuscus = assay: Deterrent activity against Perknaster fuscus assessed as induction of sustained retractions of tube-feet by sea-star deterrent assay; assay type: functional, organism-based
Escherichia coli = assay: Antimicrobial activity against […] coli at 120 ug/disk after 48 hrs by paper disk method; assay type: functional, organism-based
Staphylococcus aureus = assay: Antimicrobial activity against Staphylococcus aureus at 120 ug/disk after 48 hrs by paper disk method; assay type: functional, organism-based
[1] = system: Staphylococcus epidermidis; assay: Antimicrobial activity against Staphylococcus epidermidis at 120 ug/disk after 48 hrs by paper disk method; assay type: functional, organism-based

SMILES	Activity (Perknaster fuscus)	also measured
O=C(O)CCNc1ncnc2[nH]c(=O)[nH]c12 [ERINACEAN]	inactive	CC50 (L5178Y): 50 µg/mL (≈ 224 µM); Activity (Escherichia coli): Active; Activity (Staphylococcus aureus): Active; Activity [1]: Active
O=c1[nH]cnc2c1ncn2[C@@H]1O[C@H](CO)[C@@H](O)[C@H]1O	inactive	–
Cn1cnc2ncnc(N)c21	inactive	–
O=Cc1ccc(O)cc1	Active	–
O=c1ccn([C@@H]2O[C@H](CO)[C@@H](O)[C@H]2O)c(=O)[nH]1	inactive	–
Nc1ccn([C@H]2C[C@H](O)[C@@H](CO)O2)c(=O)n1	inactive	–
Cn1c(N)nc2c(ncn2C)c1=O	inactive	–

From ChEMBL document CHEMBL1159195, “Purine and nucleoside metabolites from the Antarctic sponge Isodictya erinacea” (1998)
